The values below come from patent EP1021178B1, “SELENOPHENE ANTI-TUMOR AGENTS” (Purdue Research Foundation, priority 1996, dated 1997).

Holding throughout (assay): NCI human tumor cell panel
One test relates to EKVX. Particulars: read-out: Log10 LC50 (converted).
The next test has as its system TK-10. Particulars: TK-10, read-out: Log10 LC50 (converted).
For the next test, the system named is MDA-MB-435. Conditions: for CC50: MDA-MB-435, read-out: Log10 LC50 (converted).
In a further test the test system is SNB-75. Conditions: SNB-75, read-out: Log10 LC50 (converted).
The subject of a further test is SF-295. Conditions: for CC50: SF-295, read-out: Log10 LC50 (converted).
In another test the test system is UO-31. Particulars: UO-31, read-out: Log10 LC50 (converted).
For a further test, the system named is KM12. It counts as cell-based. Particulars: KM12, read-out: Log10 LC50 (converted). From the text:
(§1) Considering the diversity of tumors in terms of cell type, morphology, growth rate and other cellular characteristics, the U.S. National Cancer Institute (NCI) has developed a "disease-oriented" approach to antitumor activity screening (M.R. Boyd, in "Principle of Practice of Oncology" J.T. Devita, S. Hellman, S.A. Rosenberg (Eds.) Vol. 3, PPO Update, No. 10, 1989). This in vitro prescreening system is based on the measurement of antitumor cytotoxicity against human tumor cell line panels consisting of approximately 60 cell lines of major human tumors (including leukemia and slower growing tumor cells such as lung, colon, breast, skin, kidney, etc.). The most important advantage of the new in vitro screening panels is the opportunity to identify compounds that are selectively more cytotoxic to cells of slowly growing solid tumors than to rapidly growing leukemia cells.
(§2) The cytotoxic activity of the present selenophene compounds have been measured utilizing two different assays or screens. The first screen measures the cytotoxicity against a panel of sixty different human tumor cell lines. This assay provides data regarding the general cytotoxicity of an individual compound. In particular this type of assay is useful in identifying compounds which have enhanced cytotoxic activity against slow growing tumors as compared to faster growing tumor cells such as leukemia tumor cell lines. The identification of such compounds is critical since previously identified antitumor agents have low cytotoxic activity against slower growing tumors. […] The specificity of a cytotoxic compound for tumor cell lines relative to normal cells is an important characteristic of an effective antitumor agent.
(§3) Antitumor cytotoxicity data generated from the National Cancer Institute human tumor cell panels can also be expressed in a graphic pattern (mean graph) to display differential cell growth inhibition (K.D. Paull, R.H. Shoemaker, L. Hodes, A. Monks, D.A. Scudiero, L. Rubinstein, J. Plowman and M.R. Boyd, J. Nail. Cancer Inst., 81, 1088, 1989.) In the mean graph, the arithmetic mean of the logarithm of the GI50 (50% growth inhibition), TGI (total growth inhibition) or LC50 (50% lethal concentration) values is used as an anchor point. […] The length of a bar is indicative of differential cytotoxicity against a specific type of tumor cells or tumor panels.
(§4) The antitumor cytotoxicity of the selenophene compounds tested in those in vitro assays was measured by a microculture assay using either a 3-(4,5-dimethylthiazol-2-yl)-2,5-diphenyltetrazolium bromide (MTT) or sulforhodamine B (SRB) based assay. [M.R. Boyd in "Principles and Practices of Oncology," V.T. DeVita, Jr.]. The experiments were conducted at Purdue University in 96-well microtiter plates and the cytotoxic effects of the selenophene compounds on those cells were measured by cell count using a Coulter Z.F. counter (Hialeah, FL). The results are expressed as GI50, the concentration of drug at which cell numbers are reduced to 50% of control cell culture [T.C.K. Chan, C.J. Chang, N.M. Koonchanok and R.L. Geahlen, Biochem. Biophys. Res. Commun., 193, 1152, (1993); S. Hellman and S.A. Rosenberg (Eds.), Vol. 3, PPO Updates, Number 10, (1989).]
(§5) This in vitro microculture assay has an advantage over in vivo assays in that results are obtained within a week as opposed to several months. The MTT assay is based on the production of a dark blue formazan product by dehydrogenase in the mitochondria of live tumor cells after exposure to drug for 6 days [M.C. Alley, D.A. Scudiero, A. Monks, M.L. Hursey, M.J. Czerwinski, D.L. Fine, B.J. Abbott, J.G. Mayo, R.H. Shoemaker and M.R. Boyd, Cancer Res., 48, 589, 1988]. Thus, only live cells are stained and can be measured at 570 nm. […]

For another test, the system named is DU-145. The class given is cell-based. Particulars: DU-145, read-out: Log10 LC50 (converted).
From the text: as §1, §2, §3, §4, §5

The subject of the next test is SN12C. It counts as cell-based. Conditions: read-out: Log10 LC50 (converted).
From the text: as §1, §2, §3, §4, §5

The subject of the next test is 786-0. It counts as cell-based. Particulars: 786-0, read-out: Log10 LC50 (converted).
From the text: as §1, §2, §3, §4, §5

In the next test the test system is MCF7. The class given is cell-based. Conditions: MCF7, read-out: Log10 LC50 (converted).
From the text: as §1, §2, §3, §4, §5

A further test concerns IGROV1. It counts as cell-based. Particulars: IGROV-1, read-out: Log10 LC50 (converted).
From the text: as §1, §2, §3, §4, §5

A further test relates to MCF7/ADR-RES. It counts as cell-based. Particulars: MCF7, read-out: Log10 LC50 (converted).
From the text: as §1, §2, §3, §4, §5

Another test relates to OVCAR-5. The class given is cell-based. Conditions: OVCAR-5, read-out: Log10 LC50 (converted).
From the text: as §1, §2, §3, §4, §5

The test system of the next test is SK-MEL-2. The class given is cell-based. Conditions: SK-MEL-2, read-out: Log10 LC50 (converted).
From the text: as §1, §2, §3, §4, §5

The subject of the next test is SW-620. It counts as cell-based. Conditions: SW-620, read-out: Log10 LC50 (converted).
From the text: as §1, §2, §3, §4, §5

The test system of another test is NCI-H522. The class given is cell-based. Particulars: NCI-H522, read-out: Log10 LC50 (converted).
From the text: as §1, §2, §3, §4, §5

A further test deals with MDA-N. The class given is cell-based. Conditions: read-out: Log10 LC50 (converted).
From the text: as §1, §2, §3, §4, §5

The next test relates to BT-549. It counts as cell-based. Particulars: BT-549, read-out: Log10 LC50 (converted).
From the text: as §1, §2, §3, §4, §5

The next test deals with PC-3. It counts as cell-based. Particulars: PC-3, read-out: Log10 LC50 (converted).
From the text: as §1, §2, §3, §4, §5

The next test deals with OVCAR-3. Conditions: OVCAR-3, read-out: Log10 LC50 (converted).

For `O=Cc1ccc(-c2ccc(-c3ccc(C=O)[se]3)s2)s1`, the CC50 is more than 100 µM in the test with EKVX; 61.7 µM in the test on TK-10; more than 100 µM with MDA-MB-435; more than 100 µM with SNB-75; more than 100 µM with SF-295; more than 100 µM in the test on UO-31. In addition, the CC50 in the test with KM12 is more than 100 µM; with DU-145, more than 100 µM; in the test with SN12C, more than 100 µM; in the test with 786-0 it was 64.6 µM; in the test on MCF7 it was more than 100 µM; with IGROV1 it was 91.2 µM. Further, the CC50 in the test with MCF7/ADR-RES, in the test with OVCAR-5, in the test on SK-MEL-2, in the test on SW-620, in the test on NCI-H522 and in the test on BT-549 was more than 100 µM throughout. Moreover, the CC50 with PC-3 and with OVCAR-3 was more than 100 µM throughout. In the test with SF-295 (SF-295, read-out: Log10 TGI), the IC (TGI) was more than 100 µM. The LC50 (50% lethal concentration) in the test with MDA-N was more than 100 µM.

For the compound `OCc1ccc(-c2ccc(-c3ccc[se]3)s2)[se]1`, the CC50 in the test with EKVX was more than 100 µM; in the test on TK-10 it was 72.4 µM; with MDA-MB-435 it was more than 100 µM; in the test on SNB-75 it was more than 100 µM; in the test on SF-295, more than 100 µM; with UO-31, more than 100 µM. Moreover, the CC50 in the test on KM12 is more than 100 µM; in the test with DU-145, more than 100 µM; in the test on SN12C it was more than 100 µM; with 786-0, more than 100 µM; with MCF7, more than 100 µM; in the test on IGROV1 it was 51.3 µM. Besides, the CC50 in the test with MCF7/ADR-RES is 97.7 µM; with SK-MEL-2 it was more than 100 µM; in the test with SW-620, more than 100 µM; in the test with NCI-H522, 55 µM; with BT-549, 87.1 µM; in the test on PC-3, more than 100 µM. Further, the CC50 with OVCAR-3 is 40.7 µM. The LC50 (50% lethal concentration) in the test on MDA-N is more than 100 µM.

Turning to `OCc1ccc(-c2ccc(-c3ccc[se]3)[se]2)[se]1`, the CC50 in the test on EKVX was 42.7 µM; in the test on TK-10 it was more than 100 µM; in the test on SNB-75 it was more than 100 µM; in the test with SF-295 it was 72.4 µM; in the test with UO-31 it was more than 100 µM; with KM12, 52.5 µM. The CC50 in the test on DU-145 was 46.8 µM; in the test on 786-0, 17.4 µM; in the test on MCF7 it was 29.5 µM; in the test on IGROV1 it was 12.3 µM; in the test on MCF7/ADR-RES, more than 100 µM; in the test with OVCAR-5, more than 100 µM. Also, the CC50 in the test with SK-MEL-2 is 69.2 µM; in the test with SW-620, 35.5 µM; with NCI-H522 it was 23.4 µM; in the test on PC-3 it was 36.3 µM; in the test on OVCAR-3, 6.92 µM. Besides, in the test with MDA-N, the LC50 (50% lethal concentration) was more than 100 µM.

Turning to `OCc1ccc(-c2ccc(-c3ccc(CO)s3)[se]2)s1`, the CC50 in the test on EKVX, in the test on TK-10, in the test on MDA-MB-435, with SF-295, in the test on UO-31 and in the test with KM12 was more than 100 µM throughout. For the same compound, the CC50 in the test with DU-145, with SN12C, in the test on 786-0, with MCF7, in the test with MCF7/ADR-RES and in the test with OVCAR-5 was more than 100 µM throughout. Also, the CC50 in the test with SK-MEL-2, in the test with SW-620, with NCI-H522, with BT-549, in the test on PC-3 and with OVCAR-3 was more than 100 µM each time. For the same compound, the LC50 (50% lethal concentration) in the test on MDA-N is more than 100 µM.

On to `OCc1ccc(-c2ccc(-c3ccc(CO)[se]3)s2)[se]1`, for which the CC50 with EKVX, with TK-10, in the test with MDA-MB-435, with SNB-75, in the test on SF-295 and in the test with UO-31 was more than 100 µM throughout. For the same compound, the CC50 in the test with KM12, in the test on DU-145, in the test on SN12C, in the test with 786-0, in the test with MCF7 and in the test with IGROV1 was more than 100 µM in each case. Further, the CC50 in the test with MCF7/ADR-RES is more than 100 µM; in the test with OVCAR-5, 0.776 µM; in the test with SK-MEL-2, more than 100 µM; with SW-620, more than 100 µM; with BT-549, more than 100 µM; in the test on PC-3, more than 100 µM. Moreover, the CC50 in the test with OVCAR-3 is more than 100 µM. For the same compound, the IC (TGI) with MDA-MB-435 (MDA-MB-435, read-out: Log10 TGI) is more than 100 µM. In addition, the LC50 (50% lethal concentration) in the test on MDA-N is more than 100 µM.

Consider `O=Cc1ccc(-c2ccc(-c3ccc[se]3)[se]2)[se]1`, for which the CC50 with EKVX is more than 100 µM; in the test on TK-10 it was 25.1 µM; with MDA-MB-435, more than 100 µM; in the test with SNB-75 it was more than 100 µM; in the test with SF-295 it was 53.7 µM; in the test on UO-31, 53.7 µM. For the same compound, the CC50 is 45.7 µM in the test on KM12; 51.3 µM in the test on DU-145; 50.1 µM with SN12C; 43.7 µM in the test on 786-0; 43.7 µM in the test on MCF7; 39.8 µM with IGROV1. Moreover, the CC50 is 75.9 µM in the test with OVCAR-5; more than 100 µM in the test on SK-MEL-2; 42.7 µM in the test on NCI-H522; 79.4 µM in the test with BT-549; 87.1 µM in the test on PC-3; 30.9 µM in the test on OVCAR-3. In the test on MDA-N, the LC50 (50% lethal concentration) is 64.6 µM.

In the case of `O=Cc1ccc(-c2ccc(-c3ccc(C=O)s3)[se]2)s1`, the CC50 with EKVX, in the test on TK-10, in the test on MDA-MB-435, in the test on SNB-75, with SF-295 and in the test with KM12 was more than 100 µM throughout. Besides, the CC50 in the test on DU-145, in the test on SN12C, in the test with 786-0, in the test with MCF7, in the test on IGROV1 and with MCF7/ADR-RES was more than 100 µM each time. The CC50 in the test on OVCAR-5, with SK-MEL-2, with SW-620, in the test with NCI-H522, in the test on BT-549 and in the test on PC-3 was more than 100 µM throughout. Also, the CC50 in the test with OVCAR-3 was 4.07 µM. In addition, in the test with MDA-N, the LC50 (50% lethal concentration) is more than 100 µM.
